Target: T1, Human MAT2A (Homo sapiens, UniProt P31153)
T1 construct: Human MAT2A: Cepter, amino acids 1-395 Clone ID 334, lot 00023-148; purchased Cepter clone ID 334, lot 00023-148
Assay: Phosphate Sensor Fluorescence Assay (Biologic Example A)
Format: biochemical
Conditions: MAT2A inhibition, Biological Example A procedure (Compounds 1.001-1.028); 500 uM L-methionine, 500 uM ATP
Experimental: (§1) The ability of the compound of present disclosure to inhibit MAT2A enzyme was determined using a Phosphate Sensor Fluorescence Assay described below.
Biologic Example A. Phosphate Sensor Fluorescence Assay
(§2) MAT2A enzyme is incubated with a test compound in DMSO or DMSO and its substrates (L-methionine and ATP) in a microtiter plate. The enzymatic reaction is stopped by the addition of Working Phosphate Sensor Mixture. The plate is analyzed for fluorescence at 450 nm. The high control (DMSO with enzyme and its substrates) gives high fluorescence which represents no inhibition of enzymatic activity while the low control (DMSO with MAT2A substrates and no enzyme) gives low fluorescence which represents full inhibition of enzymatic activity.
(§3) • Human MAT2A: Cepter, amino acids 1-395 • Tris, pH 7.5: Invitrogen cat #15567-027 • KCl: Ambion cat #AM9640G • MgCl2: Ambion cat #AM9530G • Brij-35: Sigma cat B4184-10ML • DTT: Goldbio cat #DTT100 • BGG: Sigma cat #G5009-25G • PNP: Novus Biologicals cat #NBP1-50872 • 7-MEG: Cayman Chemical cat #15988 • L-Methionine: Alfa Aesar cat #J61904 • ATP: Alfa Aesar cat #J60336 • Phosphate Sensor: Thermo Fisher cat #PV4407 • EDTA: Life Tech cat #15575-038 • Assay plate: 384-well black polypropylene plate: Thomas Scientific cat #1149Q35
• Assay Buffer: 50 mM Tris, pH 7.5/50 mM KCl/10 mM MgCl2/0.01% Brij-35/1 mM DTT/0.1% BGG/40 nM PNP/6 uM 7-MEG • MAT2A: 10 nM for Cepter clone ID 329, lot 00023-123 before the addition of Working Phosphate Sensor Mixture • 5 nM for Cepter clone ID 334, lot 00023-148 before the addition of Working Phosphate Sensor Mixture • L-methionine: 500 uM before the addition of Working Phosphate Sensor Mixture • ATP: 500 uM before the addition of Working Phosphate Sensor Mixture
(§4) For the assay, a mixture of 1 mM L-methionine/1 mM ATP (2× final pre-stopped concentration) in assay buffer; MAT2A (2× final pre-stopped concentration) in Assay Buffer and Working Phosphate Sensor Mixture (1.5 uM Phosphate Sensor/30 mM EDTA in Assay Buffer, which is 3× final concentrations) were prepared. Test compounds or DMSO were added to the appropriate well suing D300e digital dispenser. 5 μl/well of Assay Buffer was added to the wells corresponding to the negative control and 5 μl/well of MAT2A was added to all the wells except for those corresponding to the negative control. After incubating the plate at room temperature for 15 minutes, 5 μl/well of the 1 mM L-methionine/1 mM ATP mixture was added to all wells. The plate was centrifuged at 1000 rpm for 1 minute and then incubated at room temperature for 1 hour. 5 μl of the Working Phosphate Sensor Mixture was added to all wells and the plate was centrifuged at 1000 rpm for 1 minute. The plate was read for fluorescence at 450 nm after exciting at 430 nm.
(§5) Percent inhibition was calculated in Chemical and Biological Information System (CBIS), (ChemInnovation Software Inc.). Curves were fitted by CBIS as % inhibition vs. log [compound concentration] using a 4-parameter inhibition model.
(§6) Fit=(A+((B−A)/(1+((C/x)^D))))
(§7) Compounds 1.001-1.028 were tested using the procedure described in Bioogical Example A, described above. Compounds 1.029-1.070 were tested using the procedure described in Biological Example B, described above.

T1 sequence (P31153 whole entry, the tested form may be a part): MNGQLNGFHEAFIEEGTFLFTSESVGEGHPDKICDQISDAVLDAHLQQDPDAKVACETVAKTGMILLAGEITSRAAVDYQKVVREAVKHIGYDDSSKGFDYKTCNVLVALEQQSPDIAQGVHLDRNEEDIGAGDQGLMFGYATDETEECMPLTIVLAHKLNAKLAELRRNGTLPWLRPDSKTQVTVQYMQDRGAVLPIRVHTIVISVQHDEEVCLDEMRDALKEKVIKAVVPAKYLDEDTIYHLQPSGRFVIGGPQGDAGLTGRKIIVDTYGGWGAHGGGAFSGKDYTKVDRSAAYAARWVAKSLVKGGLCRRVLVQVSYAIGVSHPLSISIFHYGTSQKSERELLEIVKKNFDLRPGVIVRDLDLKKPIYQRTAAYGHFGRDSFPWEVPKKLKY

| SMILES | IC50 [nM] |
| --- | --- |
| CNc1nc(=O)n(Cc2c[nH]c(C(F)(F)F)n2)c2cc(C(F)(F)F)ccc12 [1.010, 4-(methylamino)-7-(trifluoromethyl)-1-((2-(trifluoromethyl)-1H-imidazol-4-yl)methyl)quinazolin-2(1H)-one] | 1000 to 10000 |
| C[C@@H](c1c[nH]cn1)n1c(=O)nc(N(C)C)c2ccc(C(F)(F)F)cc21 (single isomer, unassigned) [1.017] | 10 to 200 |
| CO[C@H]1CCN(c2nc(=O)n([C@H](C)c3c[nH]cn3)c3cc(C(F)(F)F)ccc23)C1 (single isomer, unassigned) [1.021] | 200 to 500 |
| CC(c1c[nH]cn1)n1c(=O)nc(N(C)C)c2ccc(C(F)(F)F)cc21 (centres unmarked) [1.015, 1-(1-(1H-imidazol-4-yl)ethyl)-4-(dimethylamino)-7-(trifluoromethyl)quinazolin-2(1H)-one] | 10 to 200 |
| CNc1nc(=O)n([C@@H](C)c2c[nH]cn2)c2cc(C(F)(F)F)ccc12 (single isomer, unassigned) [1.009] | 10 to 200 |
| C[C@@H](c1c[nH]cn1)n1c(=O)nc(N2CC[C@@H](O)C2)c2ccc(C(F)(F)F)cc21 (single isomer, unassigned) [1.014] | 10 to 200 |
| CC(c1c[nH]cn1)n1c(=O)nc(N2CC[C@@H](O)C2)c2ccc(C(F)(F)F)cc21 (mixture of isomers) [1.012, 1-(1-(1H-imidazol-4-yl)ethyl)-4-((R)-3-hydroxypyrrolidin-1-yl)-7-(trifluoromethyl)quinazolin-2(1H)-one] | 10 to 200 |
| C[C@@H](c1c[nH]cn1)n1c(=O)nc(N2CCC2)c2ccc(C(F)(F)F)cc21 (single isomer, unassigned) [1.028] | 10 to 200 |
| CO[C@@H]1CCN(c2nc(=O)n([C@@H](C)c3c[nH]cn3)c3cc(C(F)(F)F)ccc23)C1 (single isomer, unassigned) [1.026] | 200 to 500 |
| CO[C@@H]1CCN(c2nc(=O)n([C@H](C)c3c[nH]cn3)c3cc(C(F)(F)F)ccc23)C1 (single isomer, unassigned) [1.025] | 10 to 200 |
| CO[C@H]1CCN(c2nc(=O)n([C@@H](C)c3c[nH]cn3)c3cc(C(F)(F)F)ccc23)C1 (single isomer, unassigned) [1.022] | 1000 to 10000 |
| C[C@H](c1c[nH]cn1)n1c(=O)nc(N(C)C)c2ccc(C(F)(F)F)cc21 (single isomer, unassigned) [1.016] | 10 to 200 |
| CC(c1c[nH]cn1)n1c(=O)nc(N2CC[C@H](CO)C2)c2ccc(C(F)(F)F)cc21 (stereo partly drawn) [1.011, 1-(1-(1H-imidazol-4-yl)ethyl)-4-((S)-3-(hydroxymethyl)pyrrolidin-1-yl)-7-(trifluoromethyl)quinazolin-2(1H)-one] | 10 to 200 |
| C[C@H](c1c[nH]cn1)n1c(=O)nc(N2CC[C@@H](O)C2)c2ccc(C(F)(F)F)cc21 (single isomer, unassigned) [1.013] | 10 to 200 |
| CNc1nc(=O)n([C@H](C)c2cscn2)c2cc(C(F)(F)F)ccc12 [1.002, (R)-4-(methylamino)-1-(1-(thiazol-4-yl)ethyl)-7-(trifluoromethyl)quinazolin-2(1H)-one] | 500 to 1000 |
| CNc1nc(=O)n(Cc2c[nH]nn2)c2cc(C(F)(F)F)ccc12 [1.005, 1-((1H-1,2,3-triazol-4-yl)methyl)-4-(methylamino)-7-(trifluoromethyl)quinazolin-2(1H)-one] | 1000 to 10000 |

Target: T1, Human MAT2A
Assay: Phosphate Sensor Fluorescence Assay (Biologic Example B)
Format: biochemical
Conditions: MAT2A inhibition, Biological Example B procedure (Compounds 1.029-1.070); 5.8 nM MAT2A, 500 uM L-methionine, 500 uM ATP
Experimental: as §1
Biologic Example B. Phosphate Sensor Fluorescence Assay
as §2
as §3, with “1-395 Clone ID 334, lot 00023-148” for “1-395”, “JTBaker P/N 2085-05” for “Alfa Aesar cat #J61904”, “Promega P/N V915B” for “Alfa Aesar cat #J60336”, “Invitrogen” for “Thermo Fisher”, “Corning P/N 3573” for “Thomas Scientific cat #1149Q35”
• Assay Buffer: 50 mM Tris, pH 7.5/50 mM KCl/10 mM MgCl2/0.01% Brij-35/1 mM DTT/0.01% BGG/40 nM PNP/6 uM 7-MEG • MAT2A: 5.8 nM MAT2A (1-395), Cepter, clone ID 334, lot 00023-148 before the addition of Working Phosphate Sensor Mixture • L-methionine: 500 uM before the addition of Working Phosphate Sensor Mixture • ATP: 500 uM before the addition of Working Phosphate Sensor Mixture
as §4, with “using a Beckman Coulter Echo 550 acoustic liquid handler. 10 μL/well” for “suing D300e digital dispenser. 5 μl/well”, “10 μL/well” for “5 μl/well”, “10 μL” for “5 μl”, “nm on a Tecan Spark microplate reader.” for “nm.”
as §5, §6, §7

| SMILES | IC50 [nM] |
| --- | --- |
| C[C@H](c1cnc[nH]1)n1c(=O)nc(N(C)C)c2ccc(Br)cc21 (single isomer, unassigned) [1.043] | 10 to 200 |
| CN(C)c1nc(=O)n(Cc2nc[nH]n2)c2cc(C(F)(F)F)ccc12 [1.051, 1-((1H-1,2,4-Triazol-3-yl)methyl)-4-(dimethylamino)-7-(trifluoromethyl)quinazolin-2(1H)-one] | 10 to 200 |
| CNc1nc(=O)n(Cc2cncs2)c2cc(C(F)(F)F)ccc12 [1.068, 4-(Methylamino)-1-(thiazol-5-ylmethyl)-7-(trifluoromethyl)quinazolin-2(1H)-one] | 500 to 1000 |
| C[C@@H](c1nc[nH]n1)n1c(=O)nc(N(C)C)c2ccc(Cl)cc21 (single isomer, unassigned) [1.061] | 500 to 1000 |
